Test results as given in patent publication US20030056232A1, “Animal showing schizophrenia-like abnormality in cognitive behaviors and method of constructing the same” (priority 2000, published 2003).

Legend:
Assay type in all cases: in vivo, rat
SD rats [1] = assay: Prepulse inhibition (PPI) of acoustic startle response; settings: for prepulse inhibition of EGF administered group under clozapine (EGF CZP) vs cytochrome-C group (Cont CZP): peritoneal, everyday from postnatal day 21; for effect on prepulse inhibition in EGF administered rats: administration for one week, test 23 hours after the final administration, haloperidol 0.3 mg/kg peritoneal (FIG. 4A); for prepulse inhibition, EGF administrated group vs cytochrome-C administered group: EGF 1.75 mg/kg s.c. five times P2-P10, p<0.05
Excerpt: As the method used to evaluate the sensorimotor and behavioral abnormalities, behavioristic measurements such as prepulse inhibition of startle response, latent inhibition, social interaction, motor activity of the animal, can be mentioned. The prepulse inhibition of startle response is a test to evaluate the ability of perception-motor activity, using the startle response as an index and the startle response can be evaluated in human being and animal in common. In this test, evaluation of attention deficit and abnormality in information processing in brain can be achieved scientifically and objectively. These are considered to be the main factors involved in schizophrenic pathology. […] This test is carried out by measurement of such reaction. Such decrease caused by the prepulse is called “prepulse inhibition”.
(§1) SD rats (Nippon SLC) from postnatal day 2 were used as the test animals. Human recombinant epidermal growth factor (EGF; Higeta Shoyu) and cytochrome-C (Sigma) were dissolved in physiological saline at 70 μL/mL. From postnatal day 2, 25 μL of the solution per 1 g of the body weights of rats (each 1.75 mg/kg) was subcutaneously administered to the rat at the nape of the neck every other day. This operation was repeated five times until postnatal day 10. From postnatal day 21, the startle response and the prepulse inhibition were measured in a startled chamber (San diego Instruments). That is, acoustic stimulus was used as the sensory stimulation to induce startle response. As a prepulse, acoustic stimuli at the intensity 5 to 15 db above the environmental noise (background noise) was given. After 100 milliseconds, a pulse stimuli at the intensity of 120 db was given. The extent of the response obtained under combination of prepulse and 120 db was divided by that obtained under 120 db alone (%) to obtain response ratio. The response ratio was subtracted from 100 and it was designated prepulse inhibition (PPI). The calculation formula used to calculate the prepulse inhibition (PPI) is shown below. [formula]
The effect of 8-Chloro-11-(4-methyl-1-piperazinyl)-5H-dibenzo[b,e][1,4]-diazepine (clozapine: Sigma-Aldrich Fine Chemical Co.Ltd.), recognized to be a therapeutic agent for schizophrenia of human beings, was evaluated on the present model animal to evaluate the adequacy of this model. To the human recombinant EGF administered group and the control group (cytochrome-C administered), clozapine was peritoneally administrated everyday. This administration was performed from postnatal day 21 and chronic abnormality of prepulse inhibition firstly occurs around this period. The prepulse inhibition (PPI) was measured at the postnatal days 30 (P30), 33 (P33) and 37 (P37) (FIG. 3). The result at postnatal day 30 (P30) is shown in FIG. 3A, the result at postnatal day 33 (P33) is shown in FIG. 3B, and the result at postnatal day 37 (P37) is shown in FIG. 3C, respectively.
Moreover, the effect of 4-(4-[p-Chlorophenyl]-4-hydroxypiperidino)-4′-fluorobutyrophenone (Haloperidol: Sigma-Aldrich Fine Chemical Co.Ltd.) was also evaluated. Haloperidol was peritoneally administrated at a dose of 0.3 mg/kg. In FIG. 4, investigation was performed on the four groups of: (1) the control rats group (CON/VEH) with saline administration (as a vehicle), (2) the EGF administrated/saline injected group (EGF/VEH, n=10), (3) the EGF administered/clozapin injected group (EGF/CLP, n=10) and (4) the EGF administered/haloperidol injected group (EGF/HPD, n=6). The administration of saline, clozapine and haloperidol continued for one week. Twenty-three hours after the final administration, the test was performed on the rats of the respective group.

SD rats [2] = assay: Motor activity: line crossing (horizonal activity) and rearing (vertical activity); settings: for effect on vertical activity of the EGF rat groups: chronic administration for three weeks, tested 48 hours after the final administration, p<0.05 vs EGF/VEH
Experimental: The locomotor activities of the animals were measured at postnatal days 24 and 52. At postnatal day 24, it was measured using automated Activity Monitor (Neuro Science). At postnatal day 53, using a box having the size of 51×51×80 cm with lines of every 17 cms, the number of line crossing (horizonal activity) and the number of learing counts (vertical activity) within 10 minutes were measured.
The mean numbers (±SEM) of horizonal activity (Line Cross) and vertical activity (Rearing) at postnatal days 24 (P24) and 52 (P52) are shown in FIG. 5. FIG. 5A is the result obtained at postnatal day 24 (n=15, 8 males and 7 females) and FIG. 5B is the result obtained at postnatal day 52 (n=10, 5 males and 5 females). In FIG. 5, the left vertical axis indicates the number of the horizonal activity, while the right vertical axis indicates the number of the vertical activity. The left columns indicate the number of line crossing and the right columns indicate the number of learing counts, respectively. Moreover, the white columns indicate the control group (CON) and the black columns indicate the epidermal EGF administrated group, respectively.
The effect of anti-psychotic medicine on motor activity was also investigated using rats of postnatal day 52. The results investigated on four groups are shown in FIG. 6, namely 1) the control rats group (CON/VEH) with saline administration as a vehicle, (2) the EGF administrated/saline injected group (EGF/VEH, n=10), (3) the EGF administered/clozapin injected group (EGF/CLP, n=10) and (4) the EGF administered/haloperidol injected group (EGF/HAL, n=6). The same numbers of male and female are used in each of the groups. Saline, haloperidol and clozapine were administrated for three weeks, and each group was tested 48 hours after the final administration. Moreover, the asterisk mark (*) and the sharp mark (#) indicate significant difference as compared with the CON/VEH group and EGF/VEH group, respectively (* p<0.05, #p<0.05). […] Meanwhile, administration of these medicines was not effective on the horizonal activity.

SD rats [3] = assay: Social interaction test (sniffing behavior against unfamiliar partner); settings: postnatal day 52; for effect on reduced sniffing behavior in the EGF administrated group: pretreated for three weeks, test 48 hours after the final injection
Excerpt: Social interaction test is a test that makes an index of the schizophrenic patient's trait that they dislike to make contact with other individuals and keeps away from society, can be made to an index. In general, the sniffling behavior of the animals, usually observed when an animal meets to an unknown individual, is observed. In general, in schizophrenic patients and in schizophrenic model animals, decrease of this behavior has been reported.
Moreover, the abnormality in social interaction of the EGF administrated rats was investigated according to the method of File et al. Using two rats of postnatal day 52, sniffling behavior between two rats was observed and the time of sniffling behavior was used as an index of anxiety. […] In concrete, the sniffling behavior was observed under high light level and unfamiliar condition in the opened space. The both groups of animals are videotaped and sniffing behaviors of the animals against those of the partner was recorded (FIG. 7).
In FIG. 7, the mean times (±SEM) of the sniffing behavior were shown. The investigation was performed on the four groups of (1) the control rats group (CON/VEH) with saline administration as a vehicle, (2) the EGF administrated/saline injected group (EGF/VEH, n=10), (3) the EGF administered/clozapin injected group (EGF/CLOZ, n=10) and (4) the EGF administered/haloperidol injected group (EGF/HAL, n=6). The EGF administrated rats were pretreated by clozapine or haloperidol for three weeks and the test was performed after 48 hours of the final injection on each group. The asterisk marks indicate significant difference as compared with the CON/VEH group (** p<0.01). […] Moreover, the reduced sniffing behavior in the EGF adinistrated group recovered by injection of clozapine (EGF/CLOZ). Meanwhile, halopelidol was not effective to recover the sniffing behavior (EGF/HAL).

SD rats [4] = assay: Startle response to acoustic stimuli of 120 db; settings: % in comparison with CON/VEH group (FIG. 4B)
Experimental: as §1, with “The response ratio was subtracted from 100 and it was designated prepulse inhibition (PPI). The calculation formula used to calculate the prepulse inhibition (PPI) is shown below. [formula]” left out
The results of the prepulse inhibition (FIG. 2A) and the startle response (FIG. 2B) analyzed in accordance to postnatal days are shown in FIG. 2. […]
Moreover, the effect of 4-(4-[p-Chlorophenyl]-4-hydroxypiperidino)-4′-fluorobutyrophenone (Haloperidol: Sigma-Aldrich Fine Chemical Co.Ltd.) was also evaluated. […]

SD rats [5] = assay: Active avoidance response in shuttle box (learning ability)
Experimental: Furthermore, the learning ability was investigated by active avoidance response. The active avoidance test was performed in a shuttle box, using rats of postnatal day 51-60 (10 trials/day). The conditioning stimulus (CS) adopted here was a stimuli by noise of 80 dB tone and room light for 5 s. When the CS was on, the test animals had to cross the other side of the shuttle box apparatus (avoidance response) in order to turn it off and avoid the appearance of the unconditioned stimulus (US) described below. As the US, an electric shock by conducting 0.6-mA intensity of constant current for 10 s was utilized. Moreover, the test animals were investigated whether they are capable of avoiding the electrical shock by learning.
In FIG. 8, the percentages (±SEM) of the avoidance response are shown. In FIG. 8, the open circle symbols indicate cytochrome-c treated control group (CON: n=10), and the closed triangle symbols indicate EGF-treated group (EGF: n=10), respectively. […] There was also no difference between these two groups in the latency of response or the number of crossings between the two sides of the shuttle box.

[6] = postnatal day 51-60, n=10 per group

Row | Compound | prepulse inhibition of EGF administered group under clozapine (EGF CZP) vs cytochrome-C group (Cont CZP) (SD rats [1]; postnatal day 30, 9th day of clozapine treatment) | prepulse inhibition of EGF administered group under clozapine (EGF CZP) vs cytochrome-C group (Cont CZP) (SD rats [1]; postnatal day 33) | prepulse inhibition of EGF administered group under clozapine (EGF CZP) vs cytochrome-C group (Cont CZP) (SD rats [1]; postnatal day 37) | effect on prepulse inhibition in EGF administered rats (SD rats [1]; prepulse 75 db) | effect on vertical activity of the EGF rat groups (SD rats [2]; postnatal day 52) | effect on reduced sniffing behavior in the EGF administrated group (SD rats [3]) | startle response against acoustic stimuli of 120 db, EGF administered groups vs CON/VEH group (SD rats [4]) | prepulse inhibition, EGF administrated group vs cytochrome-C administered group (SD rats [1]; postnatal day 30, prepulse intensities 80 db and 85 db) | prepulse inhibition, EGF administrated group vs cytochrome-C administered group (SD rats [1]; postnatal day 33, prepulse intensities 80 db and 85 db) | prepulse inhibition, EGF administrated group vs cytochrome-C administered group (SD rats [1]; postnatal day 37, prepulse intensities 75 db, 80 db and 85 db) | prepulse inhibition and startle response in accordance to postnatal days, EGF group vs cytochrome-C control group (SD rats [1]; prepulse 75 db, postnatal days 21, 28, 30, 37, 46, 51, 60 and 90, n=10 per group (FIG. 2)) | number of horizonal activity (line cross), EGF group vs cytochrome-C group (CON) (SD rats [2]; postnatal day 24, n=15) | number of vertical activity (rearing), EGF group vs cytochrome-C group (CON) (SD rats [2]; postnatal day 24, n=15) | number of vertical activity (rearing), EGF group vs cytochrome-C group (SD rats [2]; postnatal day 52, n=10, counts within 10 minutes) | sniffing behavior against the unfamiliar partner, EGF/VEH vs control rats (SD rats [3]; high light level, unfamiliar condition, p<0.01) | learning ability of the EGF-treated rats (SD rats [5]; adult phase (postnatal day 51-60)) | ability to escape from the electric shock, EGF-treated group vs cytochrome-c control group (SD rats [5]; postnatal day 51-60, 10 trials/day, n=10 per group) | latency of response, EGF-treated group vs control group (SD rats [5]; [6]) | number of crossings between the two sides of the shuttle box, EGF-treated group vs control group (SD rats [5]; [6])
1 | CN1CCN(C2=Nc3cc(Cl)ccc3Nc3ccccc32)CC1 [clozapine, 8-Chloro-11-(4-methyl-1-piperazinyl)-5H-dibenzo[b,e][1,4]-diazepine] | significant abnormality in the prepulse inhibition remained | significant difference in prepulse inhibition of the EGF administered group (EGF CZP) disappeared | significant difference in prepulse inhibition of the EGF administered group (EGF CZP) disappeared | significant improvement in prepulse inhibition | decreased significantly | recovered | – | – | – | – | – | – | – | – | – | – | – | – | –
2 | O=C(CCCN1CCC(O)(c2ccc(Cl)cc2)CC1)c1ccc(F)cc1 [haloperidol, 4-(4-[p-Chlorophenyl]-4-hydroxypiperidino)-4′-fluorobutyrophenone] | – | – | – | such effect was not observed | decreased significantly | not effective | – | – | – | – | – | – | – | – | – | – | – | – | –
3 | EGF: Human recombinant epidermal growth factor (Higeta Shoyu), protein factor administered to juvenile rats to prepare the schizophrenic model animal (NSDSECPLSHDGYCLHDGVCMYIEALDKYACNCVVGYIGERCQYRDLKWWELR; Epidermal growth factor; UniProt P01133 971-1023, looked up) | – | – | – | – | – | – | significant stronger | significant decrease | significant decrease | significant decrease | significant difference was recognized after postnatal day 28 | no significant difference | no significant difference | significant difference was observed | reduced significantly | appeared to be normal | no difference | no difference | no difference
